Data reported in patent publication US4341781A, “Pyridazopyridazine derivatives” (Hoffmann-La Roche Inc., priority 1979, dated 1982).

Biological target: T1, angiotensin converting enzyme (Oryctolagus cuniculus, UniProt P12822)
T1 sequence (P12822 34-1310): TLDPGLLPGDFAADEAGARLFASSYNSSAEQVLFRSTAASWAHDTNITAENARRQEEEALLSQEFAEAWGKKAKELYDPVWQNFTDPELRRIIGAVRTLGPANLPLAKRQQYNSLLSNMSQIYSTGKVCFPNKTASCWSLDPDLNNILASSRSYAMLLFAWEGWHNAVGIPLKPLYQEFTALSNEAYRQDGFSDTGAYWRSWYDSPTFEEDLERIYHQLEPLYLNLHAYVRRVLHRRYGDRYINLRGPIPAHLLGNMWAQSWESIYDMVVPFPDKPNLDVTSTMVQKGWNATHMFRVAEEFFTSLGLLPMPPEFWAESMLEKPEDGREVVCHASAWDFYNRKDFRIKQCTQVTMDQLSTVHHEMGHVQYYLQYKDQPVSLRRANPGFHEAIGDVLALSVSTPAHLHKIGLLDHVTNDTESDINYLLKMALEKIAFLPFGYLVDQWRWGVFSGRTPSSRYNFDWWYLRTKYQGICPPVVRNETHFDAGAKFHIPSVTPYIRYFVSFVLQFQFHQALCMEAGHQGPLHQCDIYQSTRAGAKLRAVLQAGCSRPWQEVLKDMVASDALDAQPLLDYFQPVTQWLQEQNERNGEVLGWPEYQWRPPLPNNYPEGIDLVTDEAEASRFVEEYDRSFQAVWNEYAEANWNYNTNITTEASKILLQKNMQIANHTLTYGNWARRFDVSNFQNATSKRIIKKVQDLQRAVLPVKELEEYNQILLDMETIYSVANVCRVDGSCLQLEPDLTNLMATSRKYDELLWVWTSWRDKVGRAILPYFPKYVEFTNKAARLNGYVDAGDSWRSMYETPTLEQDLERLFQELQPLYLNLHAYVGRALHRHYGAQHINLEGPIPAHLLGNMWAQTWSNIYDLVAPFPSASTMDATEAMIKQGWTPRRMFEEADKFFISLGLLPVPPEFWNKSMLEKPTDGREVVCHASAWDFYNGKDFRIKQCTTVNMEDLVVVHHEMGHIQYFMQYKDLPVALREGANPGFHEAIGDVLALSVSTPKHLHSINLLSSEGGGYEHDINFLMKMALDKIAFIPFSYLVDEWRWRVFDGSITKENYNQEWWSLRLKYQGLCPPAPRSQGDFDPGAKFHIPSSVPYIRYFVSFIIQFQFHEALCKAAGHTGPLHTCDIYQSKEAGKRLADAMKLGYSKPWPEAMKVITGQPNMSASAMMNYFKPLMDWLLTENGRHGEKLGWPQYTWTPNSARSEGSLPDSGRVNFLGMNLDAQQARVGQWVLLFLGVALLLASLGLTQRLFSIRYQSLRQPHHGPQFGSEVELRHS
Assay: Inhibition of angiotensin converting enzyme in vitro (hippuryl-histidyl-leucine cleavage, Cushman and Cheung method modified by Hayakari et al.)
Type: biochemical
Conditions: substrate hippuryl-histidyl-leucine 2 mM; potassium phosphate buffer pH 8.3, 300 mM NaCl; 25 minutes at 37° C.
Description: The activity of the present pyridazopyridazine derivatives in inhibiting angiotensin converting enzyme in vitro can be determined by the following test.
The method used is based on the method of Cushman and Cheung (Biochem. Pharmacol., 20, 1637-1648) incorporating the modifications introduced by Hayakari, et al. (Anal. Biochem., 84, 361-369). The substrate (hippuryl-histidyl-leucine, 2 mM) is incubated with angiotensin converting enzyme in the presence or absence of various concentrations of test substance in potassium phosphate buffer (pH 8.3; 100 mM) containing sodium chloride (300 mM) for 25 minutes at 37° C. (total […] 500 μl). The reaction is terminated by the addition of 3 ml of potassium phosphate buffer (pH 8.3; 200 mM) at 0° C. 2,4,6-Trichloro-s-triazine (3%) in 1.5 ml of dioxane is added and the mixture is agitated until the yellow chromophore has developed fully. The samples are then centrifuged to remove any precipitate which has formed. The yellow chromophore formed by the reaction of the 2,4,6-trichloro-s-triazine with free hippuric acid is measured spectrophotometrically at 382 nm. IC50 values are defined as the concentration of test substance which reduces by 50% the cleavage of hippuryl-histidylleucine by angiotensin converting enzyme under the aforementioned conditions.

IC50: 62.5 nM
Compound: O=C(O)C1CCCN2C(=O)CC(CS)C(=O)N12 (racemic) [racemic 8-(mercaptomethyl)-octahydro-6,9-dioxopyridazo[1,2-a]pyridazine-1-carboxylic acid]
